Experimental data: ChEMBL document CHEMBL5030535, “Conjugates Derived from Lapatinib Derivatives with Cancer Cell Stemness Inhibitors Effectively Reversed Drug Resistance in Triple-Negative Breast Cancer” (J Med Chem, 2021)
Activity calls are given as the source filed them. No cut-off for these calls is given here.

Experiments:
[1] = Resistant factor, ratio of IC50 for antiproliferative activity against drug-tolerant human MDA-MB-231 cells to IC50 for human MDA-MB-231 cells; assay type: functional
HUVEC = experiment: Antiproliferative activity against human HUVEC cells assessed as inhibition of cell growth in measured after 72 hrs by MTT assay; assay type: cell-based
MCF7 = experiment: Antiproliferative activity against human MCF7 cells assessed as inhibition of cell growth measured after 72 hrs by MTT assay; assay type: functional, cell-based; details: MCF7, 72 h
MDA-MB-231 [2] = experiment: Antiproliferative activity against human MDA-MB-231 cells assessed as inhibition of cell growth measured after 72 hrs by MTT assay; assay type: functional, cell-based; details: MDA-MB-231, 72 h
MDA-MB-231 [3] = experiment: Antiproliferative activity against human drug tolerant MDA-MB-231/lapatinib cells assessed as inhibition of cell growth in measured after 72 hrs by MTT assay; assay type: functional, cell-based; details: MDA-MB-231, 72 h
MDA-MB-231 [4] = experiment: Potency index, ratio of lapatinib IC50 to test compound IC50 for induction of apoptosis in drug-tolerant human MDA-MB-231 cells/lapatinib cells assessed as apoptotic rate at 20 uM measured after 24 hrs by flow cytometry; assay type: functional
MDA-MB-231 [5] = experiment: Induction of apoptosis in drug-tolerant human MDA-MB-231 cells/lapatinib cells assessed as apoptotic rate at 20 uM measured after 24 hrs by flow cytometry; assay type: functional
MDA-MB-231 [6] = experiment: Antitumor activity against drug-tolerant human MDA-MB-231/lapatinib cells injected in BALB/c mouse assessed as tumor development measured after 8 weeks; assay type: functional, cell-based
MDA-MB-231 [7] = experiment: Antiproliferative activity against drug-tolerant human MDA-MB-231/lapatinib cells assessed as CD44+/CD24- cells measured at 20 uM after 24 hrs by MTT assay; assay type: functional
MDA-MB-231 [8] = experiment: Cell cycle arrest in human drug-tolerant MDA-MB-231/lapatinib cells assessed as increase in accumulation at S phase at 20 uM incubated for 24 hrs […]; assay type: functional, cell-based
MDA-MB-231 [9] = experiment: Inhibition of Wnt/beta-Catenin signaling in drug-tolerant human MDA-MB-231/lapatinib cells assessed as increase in nuclear expression of p-beta-catenin level at 20 uM incubated for 24 hrs by Western blot analysis
[10] = Octanol/water partition coefficient, log P of the compound by shake flask method based thermodynamic solubility assay; assay type: physicochemical
[11] = molecular target: T1, Epidermal growth factor receptor (Homo sapiens, UniProt P00533); experiment: Inhibition of human EGFR in human MDA-MB-231 cells assessed as inhibition of phosphorylation ERK1/2 at T202/Y204 of measured after 24 hrs by Western blot analysis; assay type: cell-based; details: dose 5-20 µM
T1 sequence (P00533 whole entry): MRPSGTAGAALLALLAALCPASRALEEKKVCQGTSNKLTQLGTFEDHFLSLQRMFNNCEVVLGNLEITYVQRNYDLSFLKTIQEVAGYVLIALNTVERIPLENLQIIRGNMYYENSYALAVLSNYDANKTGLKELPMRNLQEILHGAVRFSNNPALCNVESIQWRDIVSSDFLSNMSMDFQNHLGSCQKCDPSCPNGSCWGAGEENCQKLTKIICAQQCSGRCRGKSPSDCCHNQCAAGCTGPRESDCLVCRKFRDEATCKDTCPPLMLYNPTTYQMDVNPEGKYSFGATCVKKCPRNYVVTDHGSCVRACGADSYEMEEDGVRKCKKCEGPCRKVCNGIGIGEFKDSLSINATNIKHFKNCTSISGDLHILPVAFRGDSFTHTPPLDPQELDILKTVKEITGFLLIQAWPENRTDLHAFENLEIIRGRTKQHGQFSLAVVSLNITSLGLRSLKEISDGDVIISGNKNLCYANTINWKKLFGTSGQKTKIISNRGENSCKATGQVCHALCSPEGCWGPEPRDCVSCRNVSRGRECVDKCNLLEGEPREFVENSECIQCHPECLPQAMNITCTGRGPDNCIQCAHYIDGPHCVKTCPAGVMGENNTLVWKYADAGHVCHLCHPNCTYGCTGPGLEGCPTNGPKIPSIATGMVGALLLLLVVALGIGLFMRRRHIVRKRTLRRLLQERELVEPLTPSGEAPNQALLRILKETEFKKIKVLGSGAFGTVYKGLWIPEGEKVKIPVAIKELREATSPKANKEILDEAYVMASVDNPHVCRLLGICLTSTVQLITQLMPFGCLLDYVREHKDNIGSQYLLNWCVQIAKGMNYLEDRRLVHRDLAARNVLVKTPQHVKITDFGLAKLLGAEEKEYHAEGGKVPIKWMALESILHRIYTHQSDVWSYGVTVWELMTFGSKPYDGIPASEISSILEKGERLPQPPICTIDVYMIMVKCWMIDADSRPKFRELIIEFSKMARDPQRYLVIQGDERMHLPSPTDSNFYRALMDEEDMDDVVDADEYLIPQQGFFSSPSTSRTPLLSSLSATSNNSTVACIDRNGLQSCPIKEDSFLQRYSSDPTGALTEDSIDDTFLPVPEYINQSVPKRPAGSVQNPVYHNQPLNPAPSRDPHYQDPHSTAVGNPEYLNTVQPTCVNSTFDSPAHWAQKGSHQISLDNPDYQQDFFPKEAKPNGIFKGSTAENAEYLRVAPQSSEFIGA

MDA-MB-231 [12] = experiment: Inhibition of colony formation in human drug-tolerant MDA-MB-231/lapatinib cells at 5 uM measured after 24 hrs; assay type: functional
MDA-MB-231 [13] = experiment: Inhibition of Wnt/beta-Catenin signaling in drug-tolerant human MDA-MB-231/lapatinib cells assessed as reduction in beta-catenin level at 20 uM incubated for 24 hrs by Western blot analysis
[14] = molecular target: T1, Epidermal growth factor receptor; experiment: Inhibition of human EGFR phosphorylation in human MDA-MB-231 cells measured after 24 hrs by Western blot analysis; assay type: cell-based; details: dose 5-20 µM
MDA-MB-231 [15] = experiment: Inhibition of Wnt/beta-Catenin signaling in drug-tolerant human MDA-MB-231/lapatinib cells assessed as reduction in p-GSK3beta level at 20 uM incubated for 24 hrs by Western blot analysis
MDA-MB-231 [16] = experiment: Inhibition of Wnt/beta-Catenin signaling in drug-tolerant human MDA-MB-231/lapatinib cells assessed as reduction in MMP7 mRNA level at 20 uM incubated for 24 hrs by qRT-PCR analysis; assay type: tissue-based
MDA-MB-231 [17] = experiment: Inhibition of Wnt/beta-Catenin signaling in drug-tolerant human MDA-MB-231/lapatinib cells assessed as reduction in S100A4 mRNA level at 20 uM incubated for 24 hrs by qRT-PCR analysis
MDA-MB-231 [18] = experiment: Inhibition of cell migration in human drug-tolerant MDA-MB-231/lapatinib cells at 20 uM; assay type: functional
MDA-MB-231 [19] = experiment: Induction apoptosis in MDA-MB-231/ lapatinib cells assessed as apoptotic cells at 20 uM measured after 24 hrs by propidium iodide staining based flow cytometric analysis; assay type: functional, cell-based; details: Homo sapiens
[20] = molecular target: T1, Epidermal growth factor receptor; experiment: Inhibition of exogenous EGFR (unknown origin)
[21] = molecular target: T1, Epidermal growth factor receptor; experiment: Inhibition of human EGFR in human drug-tolerant MDA-MB-231/lapatinib cells assessed as inhibition of phosphorylation ERK1/2 at T202/Y204 of measured after 24 hrs by Western blot analysis; details: dose 5-20 µM
MDA-MB-231 [22] = experiment: Inhibition of cell stemness in drug-tolerant human MDA-MB-231/lapatinib cells assessed as inhibition of Notch expression at 20 uM after 24 hrs by flow cytometry; assay type: functional, cell-based
MDA-MB-231 [23] = experiment: Inhibition of cell invasion in human MDA-MB-231/lapatinib cells at 20 uM; assay type: functional
MDA-MB-231 [24] = experiment: Inhibition of cell stemness in drug-tolerant human MDA-MB-231/lapatinib cells assessed as inhibition of Jagged expression at 20 uM after 24 hrs by flow cytometry; assay type: functional, cell-based
MDA-MB-231 [25] = experiment: Antiproliferative activity against drug-tolerant human MDA-MB-231/lapatinib cells assessed as CD44-positive cells measured after 24 hrs by MTT assay; assay type: functional, cell-based; details: MDA-MB-231, 24 h
MDA-MB-231 [26] = experiment: Inhibition of cell stemness in human drug-tolerant MDA-MB-231/lapatinib cells assessed as inhibition of Kif4 expression at 20 uM after 24 hrs by qRT-PCR analysis; assay type: functional, cell-based
MDA-MB-231 [27] = experiment: Inhibition of cell stemness in human drug-tolerant MDA-MB-231/lapatinib cells assessed as inhibition of SOX-2 expression at 20 uM after 24 hrs by qRT-PCR analysis; assay type: functional, cell-based
MDA-MB-231 [28] = experiment: Cell cycle arrest in human drug-tolerant MDA-MB-231/lapatinib cells assessed as accumulation at G2-M phase at 20 uM incubated for 24 hrs by PI staining based flow cytometry; assay type: functional
MDA-MB-231 [29] = experiment: Cell cycle arrest in human MDA-MB-231 cells assessed as increase in accumulation at S phase at 20 uM incubated for 24 hrs by PI staining based flow cytometry; assay type: functional
[30] = molecular target: T1, Epidermal growth factor receptor; experiment: Inhibition of human EGFR in human drug-tolerant MDA-MB-231/lapatinib cells assessed as inhibition of phosphorylation Akt1/2/3 at Ser473 of measured after 24 hrs by Western blot analysis; details: dose 5-20 µM
MDA-MB-231 [31] = experiment: Cell cycle arrest in human MDA-MB-231 cells assessed as accumulation at G2-M phase at 20 uM incubated for 24 hrs by PI staining based flow cytometry; assay type: functional
[32] = molecular target: T2, Aldehyde dehydrogenase 1A1 (Homo sapiens, UniProt P00352); experiment: Inhibition of ALDH1A1 in human drug-tolerant MDA-MB-231/lapatinib cells assessed as after 24 hrs
T2 sequence (P00352 whole entry): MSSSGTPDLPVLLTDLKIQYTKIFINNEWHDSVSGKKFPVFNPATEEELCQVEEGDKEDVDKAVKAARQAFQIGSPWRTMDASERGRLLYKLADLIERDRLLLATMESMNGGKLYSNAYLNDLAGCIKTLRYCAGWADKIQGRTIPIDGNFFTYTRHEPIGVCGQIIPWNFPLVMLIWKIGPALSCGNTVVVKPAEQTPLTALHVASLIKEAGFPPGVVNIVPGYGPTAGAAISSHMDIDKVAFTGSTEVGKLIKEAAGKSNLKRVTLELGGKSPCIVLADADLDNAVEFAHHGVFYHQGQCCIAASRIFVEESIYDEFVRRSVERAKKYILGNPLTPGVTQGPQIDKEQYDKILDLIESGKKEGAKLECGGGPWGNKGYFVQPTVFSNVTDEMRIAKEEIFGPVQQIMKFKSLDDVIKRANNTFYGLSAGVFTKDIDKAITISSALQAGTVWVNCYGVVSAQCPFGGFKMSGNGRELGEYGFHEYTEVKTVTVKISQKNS

[33] = molecular target: T1, Epidermal growth factor receptor; experiment: Inhibition of human EGFR in human MDA-MB-231 cells assessed as inhibition of phosphorylation Akt1/2/3 at Ser473 of measured after 24 hrs by Western blot analysis; assay type: cell-based; details: dose 5-20 µM
MDA-MB-231 [34] = experiment: Inhibition of Wnt/beta-Catenin signaling in drug-tolerant human MDA-MB-231/lapatinib cells assessed as reduction in cyclin D1 mRNA level at 20 uM incubated for 24 hrs by qRT-PCR analysis
MDA-MB-231 [35] = experiment: Inhibition of Wnt/beta-Catenin signaling in drug-tolerant human MDA-MB-231/lapatinib cells assessed as reduction in c-Myc mRNA level at 20 uM incubated for 24 hrs by qRT-PCR analysis
[36] = molecular target: T1, Epidermal growth factor receptor; experiment: Inhibition of human EGFR phosphorylation in human drug-tolerant MDA-MB-231/lapatinib cells measured after 24 hrs by Western blot analysis; details: dose 5-20 µM
MDA-MB-231 [37] = experiment: Inhibition of cell stemness in human drug-tolerant MDA-MB-231/lapatinib cells assessed as inhibition of CD44+/CD24- expression at 20 uM after 24 hrs by flow cytometry analysis; assay type: functional
MDA-MB-231 [38] = experiment: Inhibition of cell stemness in human drug-tolerant MDA-MB-231/lapatinib cells assessed as inhibition of OCT4 expression at 20 uM after 24 hrs by qRT-PCR analysis; assay type: functional, cell-based

## CS(=O)(=O)CCN(Cc1ccc(-c2ccc3ncnc(Nc4ccc(OCc5cccc(F)c5)c(Cl)c4)c3c2)o1)C(=O)CCCC(=O)OCCN1CCN(CCCN2c3ccccc3Sc3ccc(Cl)cc32)CC1
[1]
  Ratio IC50: 1.27
HUVEC
  IC50: 100 µM
MCF7
  IC50: 7.38 µM
MDA-MB-231 [2]
  IC50: 4.51 µM
MDA-MB-231 [3]
  IC50: 5.74 µM

## CS(=O)(=O)CCN(Cc1ccc(-c2ccc3ncnc(Nc4ccc(OCc5cccc(F)c5)c(Cl)c4)c3c2)o1)C(=O)CCC(=O)OCCN1CCN(CCCN2c3ccccc3Sc3ccc(Cl)cc32)CC1
MDA-MB-231 [4]
  Ratio IC50: 2.23
MDA-MB-231 [5]
  Activity: 72%
MDA-MB-231 [6]
  Activity: Active
MDA-MB-231 [7]
  inhibition at 20 µM: 72.9%
MDA-MB-231 [8]
  Activity: Active
MDA-MB-231 [9]
  inhibition: Active
[10]
  logP: 2.49
[11]
  inhibition: Active
[1]
  Ratio IC50: 0.67
MDA-MB-231 [12]
  inhibition at 5 µM: 10.9%
MDA-MB-231 [13]
  inhibition: Active
[14]
  inhibition: Dose-Dependent Effect
MDA-MB-231 [15]
  inhibition: Active
MDA-MB-231 [16]
  inhibition: Active
MDA-MB-231 [17]
  inhibition: Active
MDA-MB-231 [18]
  inhibition at 20 µM: 13.2%
MDA-MB-231 [19]
  Activity: Active
[20]
  IC50: 0.0105 µM
[21]
  inhibition: Dose-Dependent Effect
HUVEC
  IC50: 89.2 µM
MCF7
  IC50: 3.62 µM
MDA-MB-231 [22]
  inhibition: Active
MDA-MB-231 [2]
  IC50: 1.54 µM
MDA-MB-231 [23]
  inhibition at 20 µM: 56.3%
MDA-MB-231 [3]
  IC50: 1.03 µM
MDA-MB-231 [24]
  inhibition: Active
MDA-MB-231 [25]
  IC50: 0.56 µM
MDA-MB-231 [26]
  inhibition: Active
MDA-MB-231 [27]
  inhibition: Active
MDA-MB-231 [28]
  Activity: Active
MDA-MB-231 [29]
  Activity: Active
[30]
  inhibition: Dose-Dependent Effect
MDA-MB-231 [31]
  Activity: Active
[32]
  IC50: 0.0864 µM
[33]
  inhibition: Active
MDA-MB-231 [34]
  inhibition: Active
MDA-MB-231 [35]
  inhibition: Active
[36]
  inhibition: Dose-Dependent Effect
MDA-MB-231 [37]
  inhibition at 20 µM: 0.56%
MDA-MB-231 [38]
  inhibition: Active

## CC(=O)c1cc2c(o1)C(=O)c1ccccc1C2=O [NAPABUCASIN]
[1]
  Ratio IC50: 0.88
HUVEC
  IC50: 41.3 µM
MCF7
  IC50: 11.4 µM
MDA-MB-231 [2]
  IC50: 11 µM
MDA-MB-231 [3]
  IC50: 9.68 µM
[32]
  IC50: 0.425 µM

## OCCN1CCN(CCCN2c3ccccc3Sc3ccc(C(F)(F)F)cc32)CC1 [FLUPHENAZINE]
[1]
  Ratio IC50: 0.86
HUVEC
  IC50: 38 µM
MCF7
  IC50: 24.6 µM
MDA-MB-231 [2]
  IC50: 16.7 µM
MDA-MB-231 [3]
  IC50: 18.6 µM

## CS(=O)(=O)CCN(Cc1ccc(-c2ccc3ncnc(Nc4ccc(OCc5cccc(F)c5)c(Cl)c4)c3c2)o1)C(=O)CCCC(=O)OCCN1CCN(CCCN2c3ccccc3Sc3ccc(C(F)(F)F)cc32)CC1
[1]
  Ratio IC50: 1.08
HUVEC
  IC50: 43.4 µM
MCF7
  IC50: 9.16 µM
MDA-MB-231 [2]
  IC50: 6.58 µM
MDA-MB-231 [3]
  IC50: 7.12 µM
